Laboratory results from BindingDB's records for doi:10.1016/j.bmcl.2004.02.007 (Research Triangle Institute, 2004).

What was measured:
[1] = molecular target: Neuronal acetylcholine receptor subunit alpha-4/beta-2 (Rattus norvegicus, UniProt P09483+P12390); assay: Binding affinity towards rat Nicotinic acetylcholine receptor alpha4-beta2 expressed in Xenopus oocytes using [3H]epibatidine as radioligand
[2] = molecular target: Neuronal acetylcholine receptor subunit alpha-3/beta-2 (Rattus norvegicus, UniProt P12390+P04757); assay: Binding affinity towards rat Nicotinic acetylcholine receptor alpha3-beta2 expressed in Xenopus oocytes using [3H]epibatidine as radioligand
Sequence of Neuronal acetylcholine receptor subunit alpha-3/beta-2 (P12390 whole entry): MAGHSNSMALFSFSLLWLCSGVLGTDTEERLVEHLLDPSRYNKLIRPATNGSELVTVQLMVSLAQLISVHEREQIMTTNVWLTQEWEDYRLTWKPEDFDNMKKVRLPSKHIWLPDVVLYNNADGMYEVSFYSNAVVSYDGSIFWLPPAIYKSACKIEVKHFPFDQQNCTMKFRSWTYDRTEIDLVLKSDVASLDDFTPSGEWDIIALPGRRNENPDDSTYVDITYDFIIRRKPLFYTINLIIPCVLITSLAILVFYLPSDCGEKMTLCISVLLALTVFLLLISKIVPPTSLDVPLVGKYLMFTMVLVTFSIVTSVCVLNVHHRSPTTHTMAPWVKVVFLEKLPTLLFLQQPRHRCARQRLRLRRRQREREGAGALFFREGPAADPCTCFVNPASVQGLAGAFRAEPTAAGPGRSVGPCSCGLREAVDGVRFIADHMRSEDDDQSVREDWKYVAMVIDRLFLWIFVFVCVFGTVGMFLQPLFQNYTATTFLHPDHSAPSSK
Sequence of Neuronal acetylcholine receptor subunit alpha-3/beta-2 (P04757 whole entry): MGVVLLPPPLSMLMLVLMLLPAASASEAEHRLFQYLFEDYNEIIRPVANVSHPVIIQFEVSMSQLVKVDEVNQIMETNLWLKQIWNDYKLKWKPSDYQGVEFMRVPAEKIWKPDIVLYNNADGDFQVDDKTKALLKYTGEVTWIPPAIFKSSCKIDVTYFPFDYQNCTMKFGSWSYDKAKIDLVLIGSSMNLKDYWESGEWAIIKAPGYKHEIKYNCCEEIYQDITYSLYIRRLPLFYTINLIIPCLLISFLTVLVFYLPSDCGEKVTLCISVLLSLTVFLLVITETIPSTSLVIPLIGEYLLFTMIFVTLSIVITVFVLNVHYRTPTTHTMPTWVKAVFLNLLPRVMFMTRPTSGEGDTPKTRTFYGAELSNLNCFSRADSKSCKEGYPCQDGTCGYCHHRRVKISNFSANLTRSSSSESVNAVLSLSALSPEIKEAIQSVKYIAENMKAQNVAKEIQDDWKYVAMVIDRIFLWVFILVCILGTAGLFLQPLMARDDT

Sequence of Neuronal acetylcholine receptor subunit alpha-4/beta-2 (P09483 whole entry): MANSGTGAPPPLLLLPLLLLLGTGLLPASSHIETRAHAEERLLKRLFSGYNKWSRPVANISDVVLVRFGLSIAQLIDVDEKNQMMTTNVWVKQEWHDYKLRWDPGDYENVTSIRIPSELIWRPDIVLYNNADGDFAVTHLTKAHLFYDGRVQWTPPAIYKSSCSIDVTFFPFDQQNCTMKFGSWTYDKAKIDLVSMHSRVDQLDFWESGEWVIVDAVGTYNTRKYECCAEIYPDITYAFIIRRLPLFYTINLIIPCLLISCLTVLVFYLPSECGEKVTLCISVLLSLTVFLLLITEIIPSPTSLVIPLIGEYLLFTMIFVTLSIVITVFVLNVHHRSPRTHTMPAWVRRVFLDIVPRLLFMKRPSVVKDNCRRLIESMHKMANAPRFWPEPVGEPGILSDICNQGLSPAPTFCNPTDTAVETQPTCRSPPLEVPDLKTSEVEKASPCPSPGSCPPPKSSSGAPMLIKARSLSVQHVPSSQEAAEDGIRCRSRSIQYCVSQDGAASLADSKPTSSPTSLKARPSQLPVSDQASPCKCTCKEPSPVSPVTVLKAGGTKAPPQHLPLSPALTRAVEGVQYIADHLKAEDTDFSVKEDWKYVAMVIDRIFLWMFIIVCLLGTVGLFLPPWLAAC
Sequence of Neuronal acetylcholine receptor subunit alpha-4/beta-2 (P12390 whole entry): as the sequence (P12390 whole entry) above

Compound	Ki [1] [pM]	Ki [2] [pM]
c1cncc(C2CC3CCC2N3)c1 (configuration not stated) [2-(pyridin-3-yl)-7-aza-bicyclo[2.2.1]heptane]	9	–
Fc1ccc(C2CC3CCC2N3)cn1 [(R)-2-(6-Fluoro-pyridin-3-yl)-7-aza-bicyclo[2.2.1]heptane]	–	4
